Data from patent US20240237690A1, “Licorice Compounds and Their Use as Flavor Modifiers” (Firmenich SA, priority 2021, published 2024).

Columns and labels:
Assay type in all cases: in vivo, human
[1] = test system: sweet taste of water solution containing 4% sucrose; assay: Sensory testing by trained taste panel: sweet taste, sucrose reference; settings: mean of 20 trained panelists, scale −5 to 5; compound at 10 or 40 ppm; 0 = reference water solution containing 4% sucrose
Description: (§1) A panel consisted in 20 trained taste panelists evaluated samples of each of Compounds 101-106 at 10 or 40 ppm for taste properties (sweet, licorice, lingering, bitter or astringent) on a scale of −5 to 5 (−5 to −4 denoted strong masking effect, −4 to −3 denoted moderate masking effect, −3 to −2 denoted masking effect, −2 to 0 denoted weak masking effect, while 5 to 4 denoted strong enhancing effect, 4 to 3 denoted moderate enhancing effect, 3 to 2 denoted enhancing effect, 2 to 0 denoted weak enhancing effect, 0 being equal to the intensity of a reference water solution containing 4% sucrose or 0.02% SG95 (>95% steviol glycosides) or 10 ppm mixture of Limonin, Naringin, and Normilin (for bitter and astringent). Note that ED and HED refers to eriodictyol or homoeriodictyol, respectively, at a concentration of 40 ppm.

[2] = test system: bitter taste of 10 ppm mixture of Limonin, Naringin, and Normilin; assay: Sensory testing by trained taste panel: bitter taste, citrus bitter mixture; settings: mean of 20 trained panelists, scale −5 to 5, compound at 10 or 40 ppm, ED at 40 ppm, 0 = reference 10 ppm mixture of Limonin
Description: as §1

[3] = test system: lingering taste of 0.02% SG95 (>95% steviol glycosides); assay: Sensory testing by trained taste panel: lingering, SG95 reference; settings: mean of 20 trained panelists, scale −5 to 5; compound at 10 or 40 ppm; 0 = reference 0.02% SG95
Description: as §1

[4] = test system: astringent taste of 10 ppm mixture of Limonin, Naringin, and Normilin; assay: Sensory testing by trained taste panel: astringent taste, citrus bitter mixture; settings: mean of 20 trained panelists, scale −5 to 5, compound at 10 or 40 ppm, ED at 40 ppm, 0 = reference 10 ppm mixture of Limonin
Description: as §1

| SMILES | Sweet (sucrose) [1] | Bitter (Limonin, Naringin, and Normilin) [2] | Lingering (SG95) [3] | Astringent (Limonin, Naringin, and Normilin) [4] |
| --- | --- | --- | --- | --- |
| O=C1C[C@@H](c2ccc(O[C@@H]3O[C@H](CO)[C@@H](O)[C@H](O)[C@H]3O)cc2)Oc2cc(O)ccc21 [Compound 101, liquiritin] | Enhance (3 to 2 denoted enhancing effect) | Mask (−3 to −2 denoted masking effect) | – | – |
| O=C(/C=C/c1ccc(O)cc1)c1ccc(O)cc1O [Compound 104, isoliquiritigenin] | Enhance (3 to 2 denoted enhancing effect) | – | – | – |
| O=C1C[C@@H](c2ccc(O)c(O)c2)Oc2cc(O)cc(O)c21 [ED, eriodictyol, reference compound] | – | Mask (−3 to −2 denoted masking effect) | – | – |
| O=C1C[C@@H](c2ccc(O)cc2)Oc2cc(O)ccc21 [Compound 102, liquiritigenin] | – | Mask (−3 to −2 denoted masking effect) | Mask (−3 to −2 denoted masking effect) | Mask (−3 to −2 denoted masking effect) |
